# Patent publication US12048703B2, “Use of small molecule FAK activators to promote mucosal healing” (Regents of the University of Minnesota, priority 2018, dated 2024)
# “Also recorded” adds a separate entry of the source.
# Key:
# FAK = target: T1, FAK (Homo sapiens, UniProt Q05397); experiment: FAK activation (FAK-Tyr-397 phosphorylation) by western blotting in Caco-2 cells in suspension; type: cell-based; settings: for basal FAK-Tyr-397 phosphorylation: ambient pressure, varying concentrations; for FAK activation (FAK-Tyr-397 phosphorylation): Caco-2 cells; for FAK phosphorylation: 100 pm-1 nM
# T1 construct: endogenous in cells; host or cells: Caco-2
# T1 sequence (Q05397 whole entry): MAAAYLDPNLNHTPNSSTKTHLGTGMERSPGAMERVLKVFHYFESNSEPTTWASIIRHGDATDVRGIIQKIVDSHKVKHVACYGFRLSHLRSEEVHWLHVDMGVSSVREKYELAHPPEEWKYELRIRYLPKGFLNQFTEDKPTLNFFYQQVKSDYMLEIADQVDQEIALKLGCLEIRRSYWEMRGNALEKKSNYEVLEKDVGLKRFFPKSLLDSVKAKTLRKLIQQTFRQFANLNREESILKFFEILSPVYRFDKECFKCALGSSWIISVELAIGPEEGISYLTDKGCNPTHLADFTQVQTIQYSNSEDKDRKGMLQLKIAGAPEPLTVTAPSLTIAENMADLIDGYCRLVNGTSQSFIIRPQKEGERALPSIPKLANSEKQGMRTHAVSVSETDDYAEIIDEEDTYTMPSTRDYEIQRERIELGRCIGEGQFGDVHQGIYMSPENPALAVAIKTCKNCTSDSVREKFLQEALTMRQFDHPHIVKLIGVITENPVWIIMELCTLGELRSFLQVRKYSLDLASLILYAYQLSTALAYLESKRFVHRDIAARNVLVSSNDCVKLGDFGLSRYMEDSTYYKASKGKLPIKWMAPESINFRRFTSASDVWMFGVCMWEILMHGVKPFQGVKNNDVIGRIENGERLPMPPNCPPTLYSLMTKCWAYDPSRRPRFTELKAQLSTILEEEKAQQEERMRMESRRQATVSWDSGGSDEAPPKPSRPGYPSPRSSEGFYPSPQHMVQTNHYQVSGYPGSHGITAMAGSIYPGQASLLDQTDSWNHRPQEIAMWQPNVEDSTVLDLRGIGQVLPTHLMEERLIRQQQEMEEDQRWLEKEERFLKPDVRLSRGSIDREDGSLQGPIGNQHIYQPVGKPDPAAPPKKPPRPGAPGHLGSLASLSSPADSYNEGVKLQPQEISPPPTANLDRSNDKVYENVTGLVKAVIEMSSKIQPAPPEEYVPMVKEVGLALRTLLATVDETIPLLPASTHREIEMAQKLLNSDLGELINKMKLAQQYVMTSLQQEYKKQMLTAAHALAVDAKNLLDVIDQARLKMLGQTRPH
# From the text: FAK-Y397 western blotting: For studies of FAK activation, cells were maintained at ambient or increased pressure in bacteriologic plastic dishes pacificated with heat-inactivated bovine serum albumin to prevent adhesion and avoid adhesion-associated background FAK activation. Cells were lysed in lysis buffer, resolved by 10% SDS-PAGE, transferred to nitrocellulose and blotted with antibody to Tyr-397-phosphorylated FAK (Rabbit monoclonal antibody, ab81298, Abcam, USA) and anti-rabbit 680 (LI-COR, USA), before quantitation using Kodak Scientific Imaging Systems 1D, V.3.5.4 within the linear range of exposure (Oncotarget 2017). Total FAK (Primary antibody: Anti-FAK, clone 4.47 Merck, Germany and secondary antibody: anti-mouse 800, LI-COR, USA) served as a protein loading control.
# Caco-2 monolayers = experiment: Closure of circular wounds in Caco-2 monolayers on collagen I; type: cell-based, human; settings: for wound closure rate: 100 μM, Caco-2 on Collagen-I; for monolayer wound closure: Caco-2 on collagen I; for stimulation of wound closure under FAK blockade: with FAK inhibitor PF-573328 (10 uM); for Caco-2 monolayer wound closure: concentration not given
# Caco-2 cells = experiment: Caco-2 proliferation; type: cell-based, human
# SHP2 = target: T2, SHP2 (Homo sapiens, UniProt Q06124); experiment: SHP2 dephosphorylation of a synthetic substrate; type: biochemical; settings: for SHP2 dephosphorylation of a synthetic substrate: 100 nM, vs. positive control reaction
# T2 sequence (Q06124 1-593): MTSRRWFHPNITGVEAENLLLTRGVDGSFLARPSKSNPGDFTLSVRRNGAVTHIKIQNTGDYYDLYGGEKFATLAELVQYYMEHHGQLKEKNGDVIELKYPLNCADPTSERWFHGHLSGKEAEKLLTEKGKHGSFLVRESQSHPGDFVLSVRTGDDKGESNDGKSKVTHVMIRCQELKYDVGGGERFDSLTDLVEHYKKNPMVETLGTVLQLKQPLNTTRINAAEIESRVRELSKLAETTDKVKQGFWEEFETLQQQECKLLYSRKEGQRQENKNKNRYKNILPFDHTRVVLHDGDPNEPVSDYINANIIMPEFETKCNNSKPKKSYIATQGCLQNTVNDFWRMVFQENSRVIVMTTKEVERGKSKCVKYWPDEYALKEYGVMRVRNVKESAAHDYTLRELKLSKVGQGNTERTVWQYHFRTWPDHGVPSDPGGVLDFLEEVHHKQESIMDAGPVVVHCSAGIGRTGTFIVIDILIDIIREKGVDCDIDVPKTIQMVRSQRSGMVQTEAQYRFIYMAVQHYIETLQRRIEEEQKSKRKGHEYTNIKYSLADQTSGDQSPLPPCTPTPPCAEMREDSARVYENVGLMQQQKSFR
# PTP1B-FAK interaction = target: T3, PTP1B-FAK interaction (Homo sapiens, UniProt Q05397); experiment: PTP1B-FAK interaction by FAK immunoprecipitation and Western for PTP1B; type: cell-based; settings: 10 nM; co-precipitation; listed as D3
# T3 construct: endogenous in cells; host or cells: Caco-2 (inferred)
# T3 sequence (Q05397 whole entry): as the sequence (Q05397 whole entry) above
# Pyk2 (also called FAK2) = target: T4, Pyk2 (also called FAK2) (Homo sapiens, UniProt Q14289); experiment: Pyk2 activation (selectivity); type: cell-based; settings: up to 1000 nm (100× therapeutic threshold); listed as D3
# T4 construct: endogenous in cells
# T4 sequence (Q14289 whole entry): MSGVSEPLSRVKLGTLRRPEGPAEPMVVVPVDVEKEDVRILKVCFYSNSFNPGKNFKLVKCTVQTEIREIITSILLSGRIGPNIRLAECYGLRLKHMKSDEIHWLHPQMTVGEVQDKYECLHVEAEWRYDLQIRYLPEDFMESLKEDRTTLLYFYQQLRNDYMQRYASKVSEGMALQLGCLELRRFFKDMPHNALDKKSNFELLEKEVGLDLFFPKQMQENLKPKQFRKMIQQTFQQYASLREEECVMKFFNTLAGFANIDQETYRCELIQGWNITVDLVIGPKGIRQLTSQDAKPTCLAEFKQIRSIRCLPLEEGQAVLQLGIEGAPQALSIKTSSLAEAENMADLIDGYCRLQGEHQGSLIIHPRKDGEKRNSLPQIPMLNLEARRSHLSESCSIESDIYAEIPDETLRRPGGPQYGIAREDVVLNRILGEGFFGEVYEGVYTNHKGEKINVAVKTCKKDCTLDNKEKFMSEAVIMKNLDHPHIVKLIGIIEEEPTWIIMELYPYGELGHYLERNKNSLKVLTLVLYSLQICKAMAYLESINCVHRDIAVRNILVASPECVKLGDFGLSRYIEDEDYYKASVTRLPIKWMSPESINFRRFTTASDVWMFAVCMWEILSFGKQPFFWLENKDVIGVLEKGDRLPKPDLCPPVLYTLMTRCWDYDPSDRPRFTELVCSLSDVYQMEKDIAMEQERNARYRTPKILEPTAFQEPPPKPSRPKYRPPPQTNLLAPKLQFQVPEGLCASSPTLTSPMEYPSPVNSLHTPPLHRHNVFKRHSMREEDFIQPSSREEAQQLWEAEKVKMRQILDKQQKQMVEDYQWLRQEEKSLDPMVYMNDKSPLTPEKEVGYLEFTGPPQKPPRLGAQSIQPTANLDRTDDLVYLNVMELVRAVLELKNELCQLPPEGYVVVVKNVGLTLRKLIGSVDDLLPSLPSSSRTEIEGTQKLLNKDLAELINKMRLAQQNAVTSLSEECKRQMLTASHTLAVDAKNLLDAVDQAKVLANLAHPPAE
# Src = target: T5, Src (Homo sapiens, UniProt P12931); experiment: Src activation (selectivity); type: cell-based; settings: up to 1000 nm (100× therapeutic threshold); listed as D3
# T5 construct: endogenous in cells
# T5 sequence (P12931 whole entry): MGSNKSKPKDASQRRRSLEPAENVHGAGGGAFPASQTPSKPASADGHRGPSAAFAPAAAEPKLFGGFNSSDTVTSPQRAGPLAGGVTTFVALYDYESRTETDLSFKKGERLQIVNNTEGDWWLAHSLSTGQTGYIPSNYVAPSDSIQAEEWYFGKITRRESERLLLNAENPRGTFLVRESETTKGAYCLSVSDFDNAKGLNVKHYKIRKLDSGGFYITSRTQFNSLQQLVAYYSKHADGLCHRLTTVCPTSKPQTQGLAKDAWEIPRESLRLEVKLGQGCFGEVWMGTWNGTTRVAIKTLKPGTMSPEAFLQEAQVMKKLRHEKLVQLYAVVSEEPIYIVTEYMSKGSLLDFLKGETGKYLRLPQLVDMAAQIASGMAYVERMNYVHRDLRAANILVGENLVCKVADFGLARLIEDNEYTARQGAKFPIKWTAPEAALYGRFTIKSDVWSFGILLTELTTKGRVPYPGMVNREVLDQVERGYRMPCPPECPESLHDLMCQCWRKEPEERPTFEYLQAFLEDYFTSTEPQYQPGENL
# ileal ulcer = experiment: Serosal acetic acid ileal ulcer healing in mice; type: in vivo; settings: vs DMSO vehicle, listed as D3
# Experimental: An in vivo study was conducted utilizing C57BL6 Male/Female>8-week-old mice. During laparotomy under anesthesia, a filter paper soaked with 75% Acetic Acid was applied to ileal serosa for 15 seconds, a technique that produces reproducible mucosal ulcers at day 4 without opening the bowel. Flanigan T L et al., Am J Surg. 2008 November; 196(5): 683-689. doi:10.1016/j.amjsurg.2008.07.016.
# At 1 day after ulcerogenesis, an intraperitoneal (IP) administration of Q6H-DMSO (2.4 ul+97.6 ul saline) was performed in a control sample, along with an IP injection of Q6H—Compound 3 (10 ug/ul) (2.4 ul+97.6 ul saline) in a test sample.
# At 4 days after ulcerogenesis (day 3 after starting administration), the ulcer area was measured in each. The observed ulcer area and corresponding wound closure rate in vivo further evidences the effect of Compound 3.
# (§1) (A) The effects of dosing of compound D3 on murine intestinal ulcer healing was investigated. Brief serosal application of a filter paper disk soaked in dilute acetic acid was used to create well demarcated reproducible mucosal small bowel ulcerations without opening the bowel (47-49). In one study such murine ulcers were created, allowed 24 hours for recovery and ulcer formation, and then compound D3 was administered at 900 ug/kg Q6H for three days before sacrifice. […] Males and females responded similarly.
# small bowel ulcer = experiment: Indomethacin small bowel ulcer healing in mice; type: in vivo; settings: 4 days after indomethacin 15 mg/kg subQ, listed as D3
# Experimental: (§2) (B) Indomethacin ulcer healing. 15 mg/kg of indomethacin was administered subcutaneously, and treatment started with vehicle of drug 1 day after injury. At 4 days, ulcer area was calculated after sacrifice by morphometric analysis of photographs of the entire small bowel.
# [1] = Toxicity assessment in acetic acid ulcer mice (weight, serum chemistry, histology); type: in vivo; settings: acetic acid ulcer model
# Experimental: as §1
# [2] = Body weight in indomethacin ulcer mice; type: in vivo; settings: indomethacin model, trend not statistically significant
# Experimental: as §2
compound,measurement,setting,value
"Cc1ccccc1[C@@H]1CCCN1C(=O)C[C@H](NC(N)=O)c1cccs1 [Compound 2, [(1S)-3-[(2S)-2-(2-methylphenyl)pyrrolidin-1-yl]-3-oxo-1-thiophen-2-ylpropyl]urea]",FAK activation,FAK; 1 nM,demonstrated FAK activation
same,FAK activation,FAK; 10 and 100 nM,modest FAK activation
same,basal FAK-Tyr-397 phosphorylation,FAK,increase basal FAK-Tyr-397 phosphorylation
same,FAK activation,FAK; concentration not given,activated FAK
same,wound closure rate,Caco-2 monolayers,Increased wound closure rates
"COc1ccc(C2CCCN2C(=O)Nc2cc(C(F)(F)F)ccc2N2CCOCC2)cc1 (stereo not drawn) [Compound 3, 2-(4-methoxyphenyl)-N-[2-(morpholin-4-yl)-5-(trifluoromethyl)phenyl]pyrrolidine-1-carboxamide]",FAK activation,FAK; 10 pM to 1 nM,activation
same,FAK activation,FAK; 1 nM,demonstrated FAK activation
same,FAK activation (FAK-Tyr-397 phosphorylation),"FAK; 10 nM, listed as D3",activating FAK; also recorded: activate FAK
same,FAK-Y-397 phosphorylation under PTP PEST inhibition,"FAK; 10 nM, PTP LYP inhibitor 540217 (50 uM), listed as D3",does not prevent D3 induction of FAK-Y-397; also recorded: stimulates Caco-2 FAK-Y-397 phosphorylation independently of PTP PEST inhibition
same,FAK activation in presence of genistein,"FAK; 100 ug/ml genistein, human Caco-2 cells, listed as D3",does not block D3 induction of FAK phosphorylation; also recorded: does not block D3 activation of FAK
same,"FAK activation, dose dependence",FAK; 10-1000 nM,dose dependently activates FAK
same,specificity vs. Pyk2,FAK; FAK activation at 10 nM vs. Pyk2,at least 100 ×
same,basal FAK-Tyr-397 phosphorylation,FAK,increase basal FAK-Tyr-397 phosphorylation
same,FAK activation,FAK; concentration not given,especially potent
same,FAK autophosphorylation in presence of FAK inhibitor PF573228,FAK; with PF573228,does not prevent Compound 3 from increasing FAK autophosphorylation
same,wound closure when proliferation is blocked,"Caco-2 monolayers; 10 nM, 4 mM OH-urea, listed as D3",stimulates wound closure even when proliferation is blocked; also recorded: accelerates closure of circular wounds
same,monolayer wound closure,Caco-2 monolayers; 10 nM,Increased wound closure rates
same,monolayer wound closure,"Caco-2 monolayers; 10 nM, listed as D3",accelerate the closure of circular wounds
same,wound closure rate,Caco-2 monolayers,Increased wound closure rates
same,stimulation of wound closure under FAK blockade,Caco-2 monolayers,prevents the stimulation of wound healing by Compound 3
same,stimulation of wound closure under FAK blockade,Caco-2 monolayers; listed as D3,prevented D3 stimulation of monolayer wound closure; also recorded: prevents D3 stimulation of wound closure
same,Caco-2 cell proliferation,Caco-2 cells,Neither Compound 1 nor Compound 3 stimulated Caco-2 cell proliferation
same,Caco-2 proliferation (cell number),"Caco-2 cells; 48 hours, listed as D3",cell number did not increase; also recorded: does not stimulate Caco-2 proliferation
same,SHP2 dephosphorylation of a synthetic substrate,SHP2,neither D3 nor D4 (100 nM) blocks SHP2 dephosphorylation
same,SHP2 activity in vitro,"SHP2; concentration not given, listed as D3",does not activate SHP2; also recorded: does not alter SHP2 activity
same,PTP1B-FAK interaction,PTP1B-FAK interaction,does not change FAK-PTPB association; also recorded: does not inhibit PTP1B-FAK interaction
same,Pyk2 activation,Pyk2 (also called FAK2),does not activate Pyk2 or Src; also recorded: does not affect the kinase Pyk2
same,Src activation,Src,does not activate Pyk2 or Src; also recorded: does not affect
same,% wound closure between day 1 and day 4,ileal ulcer; 900 ug/kg IP every 6 hours,markedly higher; also recorded: stimulates ulcer healing
same,ileal ulcer area,"ileal ulcer; day 4, 900 ug/kg IP every 6 hours for 3 days",substantially smaller ulcers; also recorded: reduces ileal ulcer area; also recorded: ulcers appear smaller
same,total small bowel ulcer area,small bowel ulcer,substantial and statistically significant reduction in ulcer area; also recorded: markedly decreases total small bowel ulcer area
same,ALT,[1]; remained within the normal range,slight elevation of ALT
same,Histological evaluation of kidneys or livers,[1]; vs vehicle,no differences
same,Serum creatinine,[1]; vs vehicle,not different
same,postoperative body weight,[1]; vs vehicle,did not display further weight loss
same,body weight,[2],lost less weight
"COc1ccc(C2CCCN2C(=O)CC(NC(N)=O)c2ccccc2Cl)cc1OC (stereo not drawn) [Compound 4, 1-(2-chlorophenyl)-3-[2-(3,4-dimethoxyphenyl)pyrrolidin-1-yl]-3-oxopropylurea]",FAK activation,FAK; 1 nM,no change was observed
same,FAK activation (FAK-Tyr-397 phosphorylation),FAK; 10 nM,can activate FAK
same,FAK activation (FAK-Tyr-397 phosphorylation),"FAK; 10 nM, listed as D4",activate FAK
same,basal FAK-Tyr-397 phosphorylation,FAK,increase basal FAK-Tyr-397 phosphorylation
same,FAK activation,FAK; concentration not given,especially potent
same,monolayer wound closure,Caco-2 monolayers; 10 nM,Increased wound closure rates; also recorded: can promote Caco-2 monolayer wound healing
same,monolayer wound closure,"Caco-2 monolayers; 10 nM, listed as D4",accelerate the closure of circular wounds
same,SHP2 dephosphorylation of a synthetic substrate,SHP2,neither D3 nor D4 (100 nM) blocks SHP2 dephosphorylation
O=C(Nc1cc(C(F)(F)F)ccc1N1CCOCC1)N1CCCC1c1ccncc1 (stereo not drawn) [Compound M3],FAK activation (FAK-Tyr-397 phosphorylation),FAK; 10 nM,proved active; also recorded: activate FAK Y-397 phosphorylation
same,FAK phosphorylation,FAK,activate FAK phosphorylation
same,Caco-2 monolayer wound closure,Caco-2 monolayers,promote Caco-2 monolayer wound closure
COc1ccc(C(CNC(=O)Nc2cc(C(F)(F)F)ccc2N2CCOCC2)N(C)C)cc1 (stereo not drawn) [Compound M6],FAK activation (FAK-Tyr-397 phosphorylation),FAK; 10 nM,proved active; also recorded: activate FAK Y-397 phosphorylation
same,FAK phosphorylation,FAK,activate FAK phosphorylation
same,Caco-2 monolayer wound closure,Caco-2 monolayers,promote Caco-2 monolayer wound closure
O=C(Nc1cc(C(F)(F)F)ccc1N1CCOCC1)N1CCCC1C1CCCCC1 (stereo not drawn) [Compound M11],FAK activation (FAK-Tyr-397 phosphorylation),FAK; 10 nM,proved active; also recorded: activate FAK Y-397 phosphorylation
same,FAK phosphorylation,FAK,activate FAK phosphorylation
same,Caco-2 monolayer wound closure,Caco-2 monolayers,promote Caco-2 monolayer wound closure
O=C(Nc1cc(C(F)(F)F)ccc1N1CCOCC1)N1CCCC1c1ccccc1 (stereo not drawn) [Compound M12],FAK activation (FAK-Tyr-397 phosphorylation),FAK; 10 nM,proved active; also recorded: activate FAK Y-397 phosphorylation
same,monolayer wound closure,Caco-2 monolayers; 10 nM,stimulates monolayer wound closure
"CS(=O)(=O)c1cccc(CNc2nc(Nc3ccc4c(c3)CCC(=O)N4)ncc2C(F)(F)F)c1 [PF-573228, reference compound]",basal FAK autophosphorylation,FAK,inhibits basal FAK autophosphorylation
same,basal rates of wound healing in vitro,Caco-2 monolayers,reduces basal rates of wound healing in vitro
